Molecules are shown by their SMILES. “And” between values parts separate entries of the source, which are not always exact repeats. Equal entries are not always repeated.

The values below come from PMC6902048, “UGT85A84 Catalyzes the Glycosylation of Aromatic Monoterpenes in Osmanthus fragrans Lour. Flowers” (Frontiers in Plant Science, 2019).

The test system of one test is CsGT1. The arrangement: method as in Shoji et al., 2015. The note with it: geraniol = 100%; ref Shoji et al., 2015; cited from earlier work.
The test system of another test is UGTs from Vitis vinifera. The arrangement: method as in Friedericke et al., 2014a; Friedericke et al., 2014b. Conditions: several Vitis vinifera UGTs, enzymes not named, ref Friedericke et al., 2014a, 2014b; cited from earlier work.
The subject of test [1] is UGTs from Camellia sinensis. The arrangement: method as in Shoji et al., 2015. The note with it: enzymes not named, ref Shoji et al., 2015; cited from earlier work.
The test system of test [2] is UGTs from Actinidia deliciosa. The arrangement: method as in Yar-Khing et al., 2014. Conditions: Actinidia deliciosa UGT; ref Yar-Khing et al., 2014; cited from earlier work.
For test [3], the system named is UGT85A84. The test is described as follows: OfUGT85A84 enzyme assay with purified recombinant protein (LC-MS, Michaelis-Menten fitting). It is filed as biochemical, Osmanthus fragrans. The note with it: for Glycosylated products formed with the sugar donor (LC-MS): 0.5 mM sugar donor with 0.5 mM linalool or linalool oxide, 1 h or 16 h incubation at 37°C. The method, then: The full-length UGT85A84 ORF was amplified and cloned into the pET21b and pET15b expression vectors (Novagen) using the primers listed in Table S2 . The two plasmids were co-transformed into Escherichia. coli BL21 (DE3) pLysS cells (Promega, Madison, WI, USA). The co-transformed cells were cultured in lysogeny broth medium supplemented with 100 µg/ml ampicillin at 37°C until OD600 approached 1.0–1.2. The temperature was then shifted to 16°C, and the cells were incubated with 0.2 mM isopropyl β-D-1-thiogalactopyranoside for 16 h. Subsequently, the cells were harvested by centrifugation, resuspended in lysis buffer (pH 8.0) containing 25 mM Tris-HCl and 150 mM NaCl and lysed by a JN-02 homogenizer. […] The eluted protein was further purified by anion-exchange chromatography (Source 15Q 10/100, GE Healthcare) with a linear NaCl gradient in the buffer (pH 8.0) containing 25mM Tris-HCl, 1M NaCl, and 2mM dithiothreitol. Then, the elution peak was concentrated to 1 ml and subjected to size-exclusion chromatography (Superdex-200 Increase 10/300, GE Healthcare) in the buffer (pH 8.0) containing 25mM Tris-HCl, 150mM NaCl, and 5mM dithiothreitol (DTT). The purity of the protein was analyzed by sodium dodecyl sulfate polyacrylamide gel electrophoresis (SDS-PAGE) and the protein was quantified using a NanoDrop 2000 spectrophotometer (Thermo Scientific, USA). Enzymatic activity assays were carried out according to the description by [Shoji et al. (2015)] with modification. […] After incubation of the mixture at 37°C for 16 h, the reaction was terminated by the addition of 1 µl of 24% trichloroacetic acid (TCA). Except for the concentrations of substrates, the same assay conditions were used for measuring the UGT85A84 kinetic parameters. […] All the reactions were incubated at 37°C for 1 h and repeated in triplicate. The reaction products were subjected to LC-MS analysis. The apparent K m and k cat values for each aglycone and sugar donor were determined by Michaelis-Menten fitting in OriginPro 9.1 software. LC-MS analysis was performed in the Thermo Scientific™ UltiMate™ 3000RS system. The separation was conducted on a Thermo Scientific™ Syncronis C18 column (100*2.1 mm, 1.7µm) at 40°C. Mobile phases consisted of phase A referring to water with 0.1% formic acid and phase B referring to methanol with 0.1% formic acid. […] The samples were eluted with the following linear gradient: 0–1min, 2% B; 1–5min, 2-95% B; 5–7min, 95% B; 7–7.1, 95–2% B; 7.1–9, 2% B. The MS analysis was performed on a Thermo Scientific™ Q Exactive Plus hybrid quadrupole-Orbitrap benchtop high-resolution mass spectrometer equipped with heated electrospray ionization. […] Identification of target compounds was carried out using Data-Dependent Acquisition (DDA). The HCD collision energy was set at NCE 20 for negative mode and was set at NCE 30 50 80 for positive mode. Quantification was performed in the full scan negative mode.

The test system of test [4] is UGT85A84. The test is described as follows: Transient over-expression of OfUGTs in Nicotiana benthamiana leaves with aglycone infiltration, glycosides by GC-MS. Conditions: N. benthamiana leaves, 50 µM linalool and 200 µM linalool oxides infiltrated, 4 h; GC-MS after β-glucosidase. It is filed as in vivo, Osmanthus fragrans.
Method: Transient expression experiments with Nicotiana benthamiana leaves were performed as described by [Zeng et al. (2016)]. […] Five days after the inoculation, the leaves were infiltrated with different aglycone solutions (50 µM linalool and 200 µM linalool oxides in 0.5 M MES + 1 M MgCl2). Four hours after infiltration, the leaves were detached and frozen at –80°C for glycoside determination ([Yar-Khing et al., 2014]). Glycoside extraction coupled with GC-MS was performed to quantify the glycoside contents according to the previously described methods ([Zheng et al., 2017]).
The experiments of transient over-expression coupled with the substrate injection in N. benthamiana leaves were conducted to investigate the glycosides produced by candidate OfUGTs in planta. The leaves were infiltrated with Super1300-OfUGT or a control construct in the presence of linalool and its oxides. The glycosides were then extracted and purified after incubation. Subsequently, GC-MS analysis calculated the glycoside contents by quantifying the corresponding aglycones released from the glycosides.
The N. benthamiana leaves were infiltrated with a control construct (S1300-GUS) or S1300-OfUGTs in the presence of linalool and its oxides. […] Different letters indicate significant difference as determined by one-way ANOVA followed by LSD t-test (P 0.05).
The subject of the next test is PpUGT85A2. The arrangement: method as in Wu et al., 2018. The note with it: Prunus persica UGT; ref Wu et al., 2018; cited from earlier work.
[5] abbreviates: aglycone as varied substrate, fixed UDP-Glc 0.5 mM.
The mark [6] stands for this setting: aglycone as varied substrate, fixed UDP-Glc 0.5 mM, 37°C, 1 h.

In the case of `OCCc1ccccc1` [2-PE, 2-phenylethanol], the “Relative activity of CsGT1 towards substrate” value (“Relative activity” below) with CsGT1 is 9.2%.

What is called Km is the substrate concentration at which the rate is half of its maximum. Regarding `C=CC(C)(O)CC/C=C(\C)CO` (stereo not drawn) [8-Hydroxylinalool], the Michaelis-Menten constant (Km) in the test on UGTs from Vitis vinifera is 33 ± 1.8 µM. Consider `CC/C=C\CCO` [(Z)-3-hexenol], for which the “Relative activity” value in the test on CsGT1 is recorded as 62%. Turning to `CC(C)=CCCC(C)CCO` (stereo not drawn) [Citronellol], the Km with UGTs from Vitis vinifera is 433 µM and 306 µM and 445 µM. Turning to `CC(C)=CCC/C(C)=C/CO[C@@H]1O[C@H](CO)[C@@H](O)[C@H](O)[C@H]1O` [Geranyl β-D-glucopyranoside], in test [1], the Km was 78.1 ± 19.6 µM.

Regarding `CCCCCCO` [Hexanol], in test [2], the Km is 117 ± 28.1 µM. `CCCCCC(O)CC` (stereo not drawn) [Octan-3-ol]: in test [2], the Km is 66.6 ± 16.2 µM. With `CC(C)=CCC[C@H](C)CCO` [S-Citronellol], the Km with UGTs from Vitis vinifera is 55 ± 1.3 µM.

As to `C[C@@H]1O[C@H](OP(=O)(O)OP(=O)(O)OC[C@H]2O[C@@H](n3ccc(=O)[nH]c3=O)[C@H](O)[C@@H]2O)[C@H](O)[C@H](O)[C@H]1O` [UDP-Rha, UDP-rhamnose], in the test with UGT85A84 [3], the “Glycosylated products formed with the sugar donor (LC-MS)” value was “No products were detected”.

As for `O=c1ccn([C@@H]2O[C@H](COP(=O)(O)OP(=O)(O)O[C@H]3OC[C@@H](O)[C@H](O)[C@H]3O)[C@@H](O)[C@H]2O)c(=O)[nH]1` [UDP-Xyl, UDP-xylose], the “Glycosylated products formed with the sugar donor (LC-MS)” value in the test on UGT85A84 [3] was “No products were detected”. In the case of `OCc1ccccc1` [benzyl alcohol], in the test on CsGT1, the “Relative activity” value was 48%. For `C=CCc1ccc(O)c(OC)c1` [eugenol], the “Relative activity” value in the test on CsGT1 is 84%. On to `CC(C)=CCC/C(C)=C/CO` [geraniol], for which the “Relative activity” value in the test on CsGT1 was 100%. Moreover, the figures for the Km in test [1] and in test [2] were 44.2 ± 3 µM and 76.2 ± 11.1 µM, respectively. In the case of `C=CC1(C)CCC(C(C)(C)O)O1` (stereo not drawn) [linalool oxide], in the test on UGT85A84 [3] (setting [5]), the “k cat/K m” value was 1.0494e+07 M⁻¹ s⁻¹. For the same compound, in the test with UGT85A84 [3] (setting [6]), the k cat was 2.12 S ^-1. In addition, the “Glycoside of the injected aglycone in UGT85A84-infiltrated leaves versus control” value with UGT85A84 [4] is “remarkable increase”. In the case of `C=CC(C)(O)CCC=C(C)C` (stereo not drawn) [linalool], the Km is 463 ± 80 µM with PpUGT85A2; 136 µM with UGT85A84 [3] (aglycone as varied substrate, fixed UDP-Glc 0.5 mM, 37°C, 1 h, mean and SEM, n = 3). For the same compound, the “k cat/K m” value in the test on UGT85A84 [3] (setting [5]) amounted to 718000 M⁻¹ s⁻¹. Further, the k cat in the test on UGT85A84 [3] (setting [6]) turned out to be 0.09 S ^-1. For the same compound, in the test with CsGT1, the “Relative activity” value is on record as 1.4%. Besides, in the test on UGT85A84 [4], the “Glycoside of the injected aglycone in UGT85A84-infiltrated leaves versus control” value is given as “no significant increase”.
